Results taken from ChEMBL document CHEMBL1201862, “PubChem BioAssay data set” (2004).
Active and inactive are the calls of the source.

Assays:
[1] = molecular target: Eukaryotic translation initiation factor 4E (Mus musculus, UniProt P63073); experiment: eIF4E–eIF4G protein interaction inhibitors, dose response, biochemical, TR-FRET (AID 855); type: functional;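 also: potency for disrupting eIF4E binding to eIF4GI seen as loss of FRET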
[2] = A Cell Based Secondary Assay To Explore Cytotoxicity of Compounds that Sensitize Mycobacterium Tuberculosis to Beta-Lactam Antibiotics.; type: functional
Estrogen receptor = molecular target: T1, Estrogen receptor (Homo sapiens, UniProt P03372);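 also: potency for inhibiting coactivator peptide recruitment to the receptor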
T1 sequence (P03372 whole entry): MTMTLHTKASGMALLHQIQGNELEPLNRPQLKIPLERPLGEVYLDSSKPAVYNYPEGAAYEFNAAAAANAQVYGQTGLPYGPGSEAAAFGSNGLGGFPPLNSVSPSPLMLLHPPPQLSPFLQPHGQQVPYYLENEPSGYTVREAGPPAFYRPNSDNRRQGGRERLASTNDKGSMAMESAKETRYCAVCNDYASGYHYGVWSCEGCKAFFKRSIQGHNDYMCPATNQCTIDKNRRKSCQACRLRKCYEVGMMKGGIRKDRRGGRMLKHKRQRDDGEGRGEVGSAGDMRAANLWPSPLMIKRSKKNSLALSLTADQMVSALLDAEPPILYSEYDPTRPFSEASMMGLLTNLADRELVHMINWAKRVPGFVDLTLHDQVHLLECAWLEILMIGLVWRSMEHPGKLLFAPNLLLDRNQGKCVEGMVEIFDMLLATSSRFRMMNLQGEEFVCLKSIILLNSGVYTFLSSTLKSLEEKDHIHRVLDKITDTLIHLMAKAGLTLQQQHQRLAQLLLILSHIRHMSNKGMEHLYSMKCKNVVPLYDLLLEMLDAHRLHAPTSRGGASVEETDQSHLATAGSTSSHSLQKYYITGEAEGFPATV

[3] = LGR2 antagonists, dose response, cell-based, HEK293, CRE-luciferase reporter, cherry pick, set 2 (AID 743343); type: functional;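 also: transfected cells were stimulated with diluted bursicon conditioned medium after compound addition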
[4] = A cytotoxicity screen of small molecule inhibitors of the PhoP region in Salmonella typhi identified in the primary screen. [Related pubchem assays: 1850, 1864, 1985 ]; type: functional
[5] = MC4R antagonists, dose response, counter-screen for LGR2 antagonist project, cell-based, plate reader, cherry pick (AID 743444); type: functional;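 also: transfected HEK 293 cells stimulated with alpha-MSH peptide; potency of inhibitors of the alpha-MSH evoked signal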
cells = type: functional
[6] = M. tuberculosis H37Rv growth inhibitors, H37Rv strain (AID 1626); type: functional
Leucine aminopeptidase = molecular target: T2, Leucine aminopeptidase (Plasmodium falciparum 3D7, UniProt Q8IL11); experiment: P. falciparum M17LAP inhibitors, primary screen, biochemical, fluorogenic H-Leu-NHMec substrate, 1536-well (AID 1619); type: functional
T2 sequence (Q8IL11 whole entry): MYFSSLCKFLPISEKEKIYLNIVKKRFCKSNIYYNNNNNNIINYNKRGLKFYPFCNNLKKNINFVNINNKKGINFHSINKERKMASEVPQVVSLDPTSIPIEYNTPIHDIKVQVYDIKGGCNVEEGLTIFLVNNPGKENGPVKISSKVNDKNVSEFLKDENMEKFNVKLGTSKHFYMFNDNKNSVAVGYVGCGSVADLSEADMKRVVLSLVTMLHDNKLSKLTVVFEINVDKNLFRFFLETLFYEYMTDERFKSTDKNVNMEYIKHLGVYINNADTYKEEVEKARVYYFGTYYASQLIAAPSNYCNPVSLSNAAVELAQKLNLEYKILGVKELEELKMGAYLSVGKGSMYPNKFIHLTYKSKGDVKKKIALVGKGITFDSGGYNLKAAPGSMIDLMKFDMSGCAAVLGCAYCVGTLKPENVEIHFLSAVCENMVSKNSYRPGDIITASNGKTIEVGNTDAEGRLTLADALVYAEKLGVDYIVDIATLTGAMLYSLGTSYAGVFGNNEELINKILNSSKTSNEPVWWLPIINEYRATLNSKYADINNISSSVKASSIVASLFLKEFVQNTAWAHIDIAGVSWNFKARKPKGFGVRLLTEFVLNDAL

Aspartyl aminopeptidase = molecular target: T3, Aspartyl aminopeptidase (Plasmodium falciparum 3D7, UniProt Q8I2J3); experiment: Counterscreen for inhibitors of M1 and M17 aminopeptidases: QFRET-based biochemical high throughput dose response assay for inhibitors of the Plasmodium falciparum M18 Aspartyl Aminopeptidase (PFM18AAP). [Related PubChem assays: 1619 (Screening assay (M17LAP inhibitors).), 1445 (Screening assay (M1AAP inhibitors).)]
T3 sequence (Q8I2J3 whole entry): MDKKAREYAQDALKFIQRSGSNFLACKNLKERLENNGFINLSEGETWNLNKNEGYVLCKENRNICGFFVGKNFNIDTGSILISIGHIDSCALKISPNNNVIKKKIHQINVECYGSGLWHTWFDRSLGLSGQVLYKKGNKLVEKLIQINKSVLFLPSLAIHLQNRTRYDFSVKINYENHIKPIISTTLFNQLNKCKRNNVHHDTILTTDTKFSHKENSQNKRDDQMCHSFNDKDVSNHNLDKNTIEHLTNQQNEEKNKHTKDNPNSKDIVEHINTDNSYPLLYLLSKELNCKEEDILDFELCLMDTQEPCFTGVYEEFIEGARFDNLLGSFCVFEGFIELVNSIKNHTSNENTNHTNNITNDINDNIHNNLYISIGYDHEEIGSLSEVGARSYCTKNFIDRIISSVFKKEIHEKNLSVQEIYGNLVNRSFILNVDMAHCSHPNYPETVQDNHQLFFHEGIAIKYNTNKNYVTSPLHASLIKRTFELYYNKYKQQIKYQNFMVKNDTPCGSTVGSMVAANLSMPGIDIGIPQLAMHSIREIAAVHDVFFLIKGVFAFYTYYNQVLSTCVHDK

Procathepsin L = Procathepsin L (Homo sapiens, UniProt P07711); experiment: cathepsin L inhibitors, dose response, counter-screen for M1/M17 aminopeptidase inhibitor project, biochemical, QFRET, 1536-well (AID 2214)
HEK293 [7] = experiment: cells; type: functional, cell-based; details: Homo sapiens
HEK293 [8] = experiment: NOD1 signaling inhibitors, primary screen, cell-based, luminescence, uHTS (AID 1578); type: functional; details: Homo sapiens
HEK293 [9] = experiment: cells; type: functional, cell-based; details: Homo sapiens; remark: listed apart in the source
HEK293 [10] = experiment: NOD2 signaling inhibitors in MDP-stimulated cells, cell-based, uHTS, luminescence (AID 2001); type: functional; details: Homo sapiens
HEK293 [11] = experiment: cells; type: functional, cell-based; details: Homo sapiens; remark: listed apart in the source
[12] = molecular target: T4, Carboxy-terminal domain RNA polymerase II polypeptide A small phosphatase 1 (Homo sapiens, UniProt Q9GZU7); experiment: inhibitors of CTDSP1, concentration-response testing, biochemical assay, absorbance-based, actives from ultra-high-throughput screening (AID 540297); type: functional
T4 sequence (Q9GZU7 whole entry): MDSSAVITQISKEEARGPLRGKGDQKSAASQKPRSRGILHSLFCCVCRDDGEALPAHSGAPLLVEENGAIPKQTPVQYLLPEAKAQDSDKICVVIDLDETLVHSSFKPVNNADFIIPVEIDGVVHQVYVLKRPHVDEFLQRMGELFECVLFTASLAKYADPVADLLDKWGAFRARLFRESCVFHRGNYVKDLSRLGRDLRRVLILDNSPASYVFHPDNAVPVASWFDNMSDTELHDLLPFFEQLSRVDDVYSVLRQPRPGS

[13] = inhibitors of intracellular T. cruzi replication, confirmation, NIH3T3 host cells, beta-gal luminescence (AID 2044); type: functional, cell-based;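 also: intracellular parasites grown in NIH/3T3 mouse fibroblasts as host cells; luminescent beta-galactosidase reporter signal from transgenic T. cruzi replicating inside host cells; inhibitors lower the luminescence signal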
[14] = system: Streptococcus sp. 'group A'; experiment: growth inhibition of control SK(-) GAS strain, dose response, counter-screen for streptokinase expression inhibitor project, luminescence, kanamycin, BacTiterGlo, confirmation (AID 1900); type: functional, organism-based
Streptococcus = experiment: Group A Streptococcus viability loss, dose response, counter-screen for streptokinase expression inhibitor project, luminescence, BacTiterGlo (AID 1915); type: functional, organism-based;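 also: potency for reduction of bacterial viability or growth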
[15] = cytotoxicity toward NIH3T3 fibroblasts, dose response, counter-screen, cell-based, ATP luminescence, mouse fibroblasts (AID 2010); type: functional;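 also: cells exposed to compound for about 90 hours before reading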
Streptokinase A = molecular target: T5, Streptokinase A (Streptococcus pyogenes serotype M1, UniProt P10520); experiment: S. pyogenes streptokinase expression inhibitors, potency, dose response, plasminogen activation absorbance, OD405 (AID 1914); type: functional, Streptococcus pyogenes M1 GAS;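 also: secreted streptokinase activity via plasminogen activation per viability signal from cell pellet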
T5 sequence (P10520 whole entry): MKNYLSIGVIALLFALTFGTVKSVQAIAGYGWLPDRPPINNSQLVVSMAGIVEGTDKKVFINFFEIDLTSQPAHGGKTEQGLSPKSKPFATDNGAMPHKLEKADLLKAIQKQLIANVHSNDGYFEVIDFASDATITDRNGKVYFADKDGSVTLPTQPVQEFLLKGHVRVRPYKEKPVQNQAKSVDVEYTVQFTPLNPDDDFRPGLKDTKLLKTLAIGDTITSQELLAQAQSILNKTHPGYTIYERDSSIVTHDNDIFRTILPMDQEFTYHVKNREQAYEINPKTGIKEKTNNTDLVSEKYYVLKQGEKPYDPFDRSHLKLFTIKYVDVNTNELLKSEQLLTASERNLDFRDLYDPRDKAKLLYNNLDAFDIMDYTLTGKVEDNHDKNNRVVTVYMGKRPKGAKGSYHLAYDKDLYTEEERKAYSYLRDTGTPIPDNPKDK

Estrogen receptor beta = Estrogen receptor beta (Homo sapiens, UniProt Q92731);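 also: recombinant ER-beta bound to coactivator SRC1 peptide in presence of estradiol agonist; inhibitors block coactivator peptide binding and lower the FRET signal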
[16] = molecular target: DNA dC->dU-editing enzyme APOBEC-3G (Homo sapiens, UniProt Q9HC16); experiment: Dose Response confirmation of small molecule APOBEC3G DNA Deaminase Inhibitors via a fluorescence-based single-stranded DNA deaminase assay. [Related pubchem assays (depositor defined):AID493012, AID493028]; type: functional
Beta-galactosidase = Beta-galactosidase (Escherichia coli, UniProt Q8VNN2); experiment: beta-galactosidase enzyme inhibitors and activators, dose response, artefact control for CCR6 antagonist project, biochemical, E. coli enzyme, set 3 (AID 504712); type: functional
[17] = Luminescence Cell-Based Dose Retest to Confirm Inhibitors of Cancer Stem Cells. [Related pubchem assays (depositor defined):AID2717, AID2721]; type: functional; details: Homo sapiens
[18] = molecular target: Heat shock protein HSP 90-alpha (Homo sapiens, UniProt P07900); type: functional, organism-based
[19] = inhibitors of Vif binding to APOBEC3G peptide, primary screen, biochemical, TR-FRET, GST-Vif 1-94, biotin-A3G peptide, dose response retest (AID 1117319); type: functional;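 also: TR-FRET signal of purified GST-Vif binding a biotinylated A3G peptide; inhibitors lower the FRET signal by blocking Vif and A3G binding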

Chain of Procathepsin L (P07711 whole entry): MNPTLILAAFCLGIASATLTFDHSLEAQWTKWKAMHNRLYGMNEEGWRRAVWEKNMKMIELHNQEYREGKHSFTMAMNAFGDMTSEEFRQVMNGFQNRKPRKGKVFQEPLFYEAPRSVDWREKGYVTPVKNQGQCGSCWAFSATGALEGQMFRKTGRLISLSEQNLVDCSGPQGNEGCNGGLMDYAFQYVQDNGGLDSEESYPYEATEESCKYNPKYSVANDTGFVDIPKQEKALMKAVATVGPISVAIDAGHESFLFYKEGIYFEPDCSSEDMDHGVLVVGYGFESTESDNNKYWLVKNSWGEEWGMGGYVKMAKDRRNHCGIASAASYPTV
Chain of Eukaryotic translation initiation factor 4E (P63073 whole entry): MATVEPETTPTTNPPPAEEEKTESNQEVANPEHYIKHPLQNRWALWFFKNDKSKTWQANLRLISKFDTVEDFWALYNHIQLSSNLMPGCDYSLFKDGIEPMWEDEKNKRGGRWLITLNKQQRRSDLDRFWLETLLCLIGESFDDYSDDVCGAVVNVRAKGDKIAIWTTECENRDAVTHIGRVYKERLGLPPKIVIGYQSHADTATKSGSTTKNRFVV
Chain of Estrogen receptor beta (Q92731 whole entry): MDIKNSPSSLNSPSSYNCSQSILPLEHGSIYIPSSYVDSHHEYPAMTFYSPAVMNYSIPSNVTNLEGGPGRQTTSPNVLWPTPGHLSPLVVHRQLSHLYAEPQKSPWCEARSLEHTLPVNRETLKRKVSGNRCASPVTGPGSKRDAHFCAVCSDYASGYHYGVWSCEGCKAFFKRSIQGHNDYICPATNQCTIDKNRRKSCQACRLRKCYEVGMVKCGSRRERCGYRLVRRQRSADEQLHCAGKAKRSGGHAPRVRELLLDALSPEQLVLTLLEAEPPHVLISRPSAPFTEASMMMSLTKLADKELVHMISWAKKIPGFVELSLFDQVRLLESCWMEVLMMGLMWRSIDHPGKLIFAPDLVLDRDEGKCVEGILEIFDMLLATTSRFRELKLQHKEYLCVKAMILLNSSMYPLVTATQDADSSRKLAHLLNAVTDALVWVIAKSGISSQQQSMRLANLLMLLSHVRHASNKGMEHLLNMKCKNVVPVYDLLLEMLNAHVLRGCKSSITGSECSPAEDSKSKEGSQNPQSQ
Chain of DNA dC->dU-editing enzyme APOBEC-3G (Q9HC16 whole entry): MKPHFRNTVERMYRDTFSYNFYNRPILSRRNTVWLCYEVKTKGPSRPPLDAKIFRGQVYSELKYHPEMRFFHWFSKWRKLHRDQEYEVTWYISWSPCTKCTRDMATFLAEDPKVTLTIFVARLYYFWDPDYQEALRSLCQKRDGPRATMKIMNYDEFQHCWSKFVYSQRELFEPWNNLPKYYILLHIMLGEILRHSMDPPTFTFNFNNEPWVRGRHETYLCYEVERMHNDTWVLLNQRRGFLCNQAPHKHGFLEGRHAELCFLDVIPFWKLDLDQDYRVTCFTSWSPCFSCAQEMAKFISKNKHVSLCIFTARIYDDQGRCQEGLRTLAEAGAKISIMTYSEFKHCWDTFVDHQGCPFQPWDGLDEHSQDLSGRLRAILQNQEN
Chain of Beta-galactosidase (Q8VNN2 whole entry): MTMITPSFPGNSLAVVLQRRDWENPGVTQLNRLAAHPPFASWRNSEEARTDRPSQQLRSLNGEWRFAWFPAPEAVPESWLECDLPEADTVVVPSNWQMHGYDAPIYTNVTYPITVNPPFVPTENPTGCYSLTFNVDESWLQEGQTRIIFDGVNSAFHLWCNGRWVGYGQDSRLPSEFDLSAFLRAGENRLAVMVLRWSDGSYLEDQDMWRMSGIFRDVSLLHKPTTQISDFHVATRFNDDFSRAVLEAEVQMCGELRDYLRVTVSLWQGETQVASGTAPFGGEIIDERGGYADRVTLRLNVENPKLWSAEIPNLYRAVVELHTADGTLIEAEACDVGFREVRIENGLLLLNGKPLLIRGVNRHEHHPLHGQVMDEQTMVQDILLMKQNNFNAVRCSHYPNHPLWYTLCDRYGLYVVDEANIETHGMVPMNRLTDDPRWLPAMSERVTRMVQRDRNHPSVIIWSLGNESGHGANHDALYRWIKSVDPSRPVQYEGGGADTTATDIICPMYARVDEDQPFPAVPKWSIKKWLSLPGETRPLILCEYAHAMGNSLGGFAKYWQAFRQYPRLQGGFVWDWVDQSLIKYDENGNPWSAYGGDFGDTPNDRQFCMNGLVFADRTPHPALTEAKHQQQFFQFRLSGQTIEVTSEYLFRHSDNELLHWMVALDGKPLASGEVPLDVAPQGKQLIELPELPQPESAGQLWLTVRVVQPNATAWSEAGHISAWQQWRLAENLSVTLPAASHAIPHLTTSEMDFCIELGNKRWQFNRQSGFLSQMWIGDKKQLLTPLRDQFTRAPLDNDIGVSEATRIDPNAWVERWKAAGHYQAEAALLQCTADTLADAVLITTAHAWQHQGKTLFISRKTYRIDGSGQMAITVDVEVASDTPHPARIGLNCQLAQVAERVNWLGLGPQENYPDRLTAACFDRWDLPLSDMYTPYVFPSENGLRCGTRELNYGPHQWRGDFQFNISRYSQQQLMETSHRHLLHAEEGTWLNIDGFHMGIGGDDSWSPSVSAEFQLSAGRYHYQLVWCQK

O=C1c2ccccc2C(O)N1Cc1ccccc1Cl (stereo not drawn)
IC50 [1]: > 64 µM (inactive)

Cc1ccc(C(=O)Nc2ccc(N3CCN(C(=O)c4cccs4)CC3)cc2)c(Cl)c1
CC50 [2]: > 40 µM (active)

CN1CCN(C2=CC(=O)OC23CCCCC3)CC1
IC50 [1]: > 64 µM (inactive)

O=C(NC1CCS(=O)(=O)C1)c1c(NC(=O)C2COc3ccccc3O2)sc2c1CCCC2 (stereo not drawn)
IC50 (Estrogen receptor): > 50 µM (not active)

O=C(COc1ccc2ccccc2c1)Nc1nccs1
AC50 [3]: 7.4 µM (active)
EC50 [4]: > 50 µM (active)
AC50 [5]: 18 µM (active)
IC50 (cells): 22.3 µM (active)
IC50 [6]: > 100 µM (active)

Cn1c(=O)c(C(=O)COC(=O)c2cc(C3CC3)nc3ccccc23)c(N)n(Cc2ccccc2)c1=O
CC50 [2]: > 40 µM (active)

COc1cc(NC(=O)CSc2nnc3c(C)cc4cc(C)cc(C)c4n23)c(C(=O)O)cc1OC
IC50 (Leucine aminopeptidase): 6 µM (active)
IC50 (Aspartyl aminopeptidase): > 73.5 µM (not active)
IC50 (Procathepsin L): > 59.6 µM (not active)

O=C(Nc1cccnc1)c1c(O)c2c(n(Cc3ccccc3)c1=O)CCCC2
IC50 [1]: > 64 µM (inactive)

CC1(C)Cc2c(C#N)c(SCc3ccccc3)nc(N3CCOCC3)c2CO1
CC50 [2]: > 40 µM (active)

O=C(c1n[nH]cc1-c1ccc(Cl)cc1)C1CO1 (stereo not drawn)
IC50 (HEK293 [7]): > 20 µM (inactive)
EC50 (HEK293 [8]): 19.3 µM (active)
IC50 (HEK293 [9]): 4.08 µM (active)
IC50 (HEK293 [10]): 5.72 µM (inactive)
IC50 (HEK293 [11]): > 20 µM (inactive)

CCOc1ccccc1NC(=O)N1CCC(NC(=O)c2cccc(C)c2)CC1
IC50 [12]: 18.8 µM (active)
IC50 [1]: 58 µM (inactive)

CCOC(=O)c1sc(NC(=O)Nc2ccc(Cl)cc2)cc1C
EC50 [13]: 1.5 µM (active)
CC50 [2]: 24.9 µM (active)
EC50 [14]: 6.12 µM (active)
EC50 (Streptococcus): 15.6 µM (active)
EC50 [15]: > 60 µM (not active)
EC50 (Streptokinase A): 26.1 µM (inconclusive)

COC(=O)c1cnn2c(C(F)(F)F)cc(-c3ccco3)nc12
IC50 (Estrogen receptor): 42.4 µM (not active)
IC50 (Estrogen receptor beta): 25.9 µM (active)

O=C(O)C1CC=CCC1C(=O)Nc1cc(Cl)ccc1Cl (stereo not drawn)
IC50 (Leucine aminopeptidase): 6.22 µM (active)
IC50 (Aspartyl aminopeptidase): > 73.5 µM (not active)
IC50 (Procathepsin L): > 59.6 µM (not active)

CCOC(=O)/C=C/C(=O)Nc1cccc([N+](=O)[O-])c1
IC50 [16]: 11 µM (active)
IC50 (Beta-galactosidase): > 66.6 µM (inactive)
AC50 [17]: 5.87 µM (active)
AC50 [18]: 3.97 µM (active)

O=C(CSc1nc(-c2ccc(F)cc2)c[nH]1)NCc1ccco1
EC50 [4]: > 50 µM (active)

CCn1c(=N)n(CC(=O)c2ccc(OC)cc2)c2ccccc21
EC50 [4]: > 50 µM (active)
IC50 [19]: > 100 µM (active)

CCOc1ccc(NC(=O)Nc2cccs2)cc1
IC50 (Leucine aminopeptidase): 3.22 µM (active)
IC50 (Aspartyl aminopeptidase): > 73.5 µM (not active)
IC50 (Procathepsin L): > 59.6 µM (not active)
